Source: patent US4148795A, “Dithiocarbamate ester bactericides and fungicides” (American Cyanamid Company, priority 1976, dated 1979)
Values joined by “and” are separate entries in the source; they are usually repeats but may differ in a detail not shown here. Equal entries are not always repeated. Where two headings read alike, the source gives them in different places.

Tests used:
[1] = system: Aspergillus niger; experiment: Spore germination inhibition; type: cell-based; details: 24 hours
Excerpt: (§1) The test procedure involves the preparation of a 100, 10 or 1 ppm. suspension of test compound in water. The solutions are placed in one dram "opticlear" vials and separately inoculated with one drop of a spore suspension prepared from seven-day cultures of Aspergillus niger and 14-day old cultures of Monilinia fructicola and Stemphylium sarcinaeforme,all grown on potato-dextrose agar. The vials containing the separately inoculated solutions of test compounds are then capped and placed on a rotating tumbler for 24 hours to assure contact of the organism with the test compound. After 24 hours, the vials are removed and examined for inhibition of […].

[2] = system: Monilinia fructicola; experiment: Spore germination inhibition; type: cell-based; details: for inhibition at 1 ppm / inhibition at 10 ppm: 24 hours; for inhibition at 100 ppm: 24 h, read-out: % Inhibition of Spore Germination
Excerpt: as §1

[3] = system: Stemphylium sarcinaeforme; experiment: Spore germination inhibition; type: cell-based; details: Stemphylium sarciniforme; for inhibition at 100 ppm: 24 h, read-out: % Inhibition of Spore Germination; for inhibition at 1 ppm / inhibition at 10 ppm: 24 hours
Excerpt: as §1

[4] = system: Aerobacter aerogenes; type: cell-based; details: 100 ppm; subcultures 72 hours at 37° C; further: key: 0: No Effect; 9: Kill of Bacteria; 5: Stasis, but not Kill of all Bacteria
[5] = system: Staphylococcus aureus; type: cell-based; details: 100 ppm; subcultures 72 hours at 37° C; further: key: 0: No Effect; 9: Kill of Bacteria; 5: Stasis, but not Kill of all Bacteria
[6] = system: Xanthomonas vesicatoria; type: cell-based; details: 100 ppm; subcultures 72 hours at 37° C; further: key: 0: No Effect; 9: Kill of Bacteria; 5: Stasis, but not Kill of all Bacteria
[7] = system: Aspergillus niger; experiment: Agar dilution plate; type: cell-based; details: An; 100 ppm, 72 hours at 23° C
Method: (§2) Test compounds were incorporated in a Sabouraud's dextrose agar in an amount sufficient to provide the active ingredient in a concentration of about 100 ppm. A twenty-ml. sample of the agar mixture is placed in a petri dish and permitted to solidify. An agar sample is inoculated with the test organism set forth below and then covered and incubated for a period of about 72 hours at 23° C. After incubation, growth observations are made. The test results are recorded and the test is repeated twice for the purpose of comparison.
(§3) The data obtained with a variety of test organisms is shown in the table below, and ratings are shown as 0 or 5. O indicates no control, 5 indicates 100% effectiveness of the test compound against the specified organism.

[8] = system: Fusarium lycopersici; experiment: Agar dilution plate; type: cell-based; details: Fl; 100 ppm, 72 hours at 23° C
Method: as §2, §3

[9] = system: Monilinia fructicola; experiment: Agar dilution plate; type: cell-based; details: Mf; 100 ppm, 72 hours at 23° C
Method: as §2, §3

[10] = system: Pythium de Baryanum; experiment: Agar dilution plate; type: cell-based; details: Pd; 100 ppm, 72 hours at 23° C
Method: as §2, §3

[11] = system: Rhizoctonia solani; experiment: Agar dilution plate; type: cell-based; details: Rs; 100 ppm, 72 hours at 23° C
Method: as §2, §3

[12] = system: Stemphylium sarcinaeforme; experiment: Agar dilution plate; type: cell-based; details: Ss; 100 ppm, 72 hours at 23° C
Method: as §2, §3
Ss= Stemphylium sarcinaeforme

[13] = system: Pseudomonas solaracaerum; type: cell-based; details: 100 ppm, 72 hours at 23° C
[14] = system: Collectotrichum lagenarium; experiment: Agar dilution plate; type: cell-based; details: Cl; 100 ppm, 72 hours at 23° C
Method: as §2, §3
Cl= Collectotrichum lagenarium

[15] = system: Verticillium albo-atrum; experiment: Agar dilution plate; type: cell-based; details: Va; 100 ppm, 72 hours at 23° C
Method: as §2, §3
Va= Verticillium albo-atrum

[16] = system: Phytophthora infestans; type: in vivo; parameters: scale not given here; details: Tomato Late Blight, five days
[17] = system: Piricularia oryzae; type: in vivo; parameters: scale not given here; details: Rice Blast, five days
[18] = system: Venturia inaequalis; details: in vivo; further: key: 5: clean, no disease; 4: trace of disease; 3: slight disease; 2: moderate disease; 1: severe disease; 0: like controls

| Compound | Antibacterial Activity rating [4] | Antibacterial Activity rating [5] | Antibacterial Activity rating [6] | Agar Dilution Plate rating [7] | Agar Dilution Plate rating [8] | Agar Dilution Plate rating [9] | Agar Dilution Plate rating [10] | Agar Dilution Plate rating [11] | Agar Dilution Plate rating [12] | Agar Dilution Plate rating [13] | Agar Dilution Plate rating [14] | Agar Dilution Plate rating [15] | disease control index ([16]; 150 ppm) | disease control index ([16]; 300 ppm) | disease control index ([16]; 600 ppm) | disease control index ([16]; 1200 ppm) | disease control index ([17]; 150 ppm) | disease control index ([17]; 300 ppm) | disease control index ([17]; 600 ppm) | disease control index [18] | other results |
| --- | --- | --- | --- | --- | --- | --- | --- | --- | --- | --- | --- | --- | --- | --- | --- | --- | --- | --- | --- | --- | --- |
| COc1ccc(C(C[N+](=O)[O-])SC(=S)N(C)C)cc1OC (stereo not drawn) [Example 25, 3,4-Dimethoxy-α-(nitromethyl)benzyl Dimethyldithiocarbamate] | 5 | 5 | 5 | 0 | 0 | 5 (100% effectiveness of the test compound against the specified organism) | 5 (100% effectiveness of the test compound against the specified organism) | 0 | 5 (100% effectiveness of the test compound against the specified organism) | 0 | 5 (100% effectiveness of the test compound against the specified organism) | 5 (100% effectiveness of the test compound against the specified organism) | 5 | 5 | 5 | 5 | 3 | 4 | 5 | 5 | inhibition at 1 ppm [1]: 0%; inhibition at 10 ppm [1]: 100%; inhibition at 100 ppm [1]: 100%; inhibition at 1 ppm [2]: 0%; inhibition at 10 ppm [2]: 100%; inhibition at 100 ppm [2]: 100%; inhibition at 100 ppm [3]: 100%; inhibition at 1 ppm [3]: 100%; inhibition at 10 ppm [3]: 100%; disease control index ([17]; 1200 ppm): 4 |
| CN(C)C(=S)SCC(SC(=S)N(C)C)C(=O)c1ccccc1 (centres unmarked) [Example 11] | 0 | 5 | 0 | 0 | 0 | 5 (100% effectiveness of the test compound against the specified organism) | 0 | 0 | 0 | 0 | 5 (100% effectiveness of the test compound against the specified organism) | 0 |  |  |  |  |  |  |  | 5 | disease control index ([16]; at 100 ppm): 3; disease control index ([16]; at 500 ppm): 4; disease control index ([17]; at 75 ppm): 3; disease control index ([17]; at 500 ppm): 4 |
| CN(C)C(=S)SCC(CSC(=S)N(C)C)[N+](=O)[O-] [Example 1, 2-Nitrotrimethylene Dimethyldithiocarbamate] | 0 | 5 | 0 | 0 | 0 | 5 (100% effectiveness of the test compound against the specified organism) | 0 | 0 | 5 (100% effectiveness of the test compound against the specified organism) | 0 | 5 (100% effectiveness of the test compound against the specified organism) | 0 | 3 | 4 | 4 | 5 | 2 | 2 | 3 | 3 and 0 | inhibition at 1 ppm [1]: 100%; inhibition at 10 ppm [1]: 100%; inhibition at 100 ppm [1]: 100%; inhibition at 1 ppm [2]: 100%; inhibition at 10 ppm [2]: 100%; inhibition at 100 ppm [2]: 100%; inhibition at 100 ppm [3]: 100%; inhibition at 1 ppm [3]: 100%; inhibition at 10 ppm [3]: 100%; disease control index ([17]; 1200 ppm): 3 |
| CN(C)C(=S)SC(C[N+](=O)[O-])c1ccc(Cl)cc1Cl (stereo not drawn) [Example 17, 2,4-Dichloro-α-(nitromethyl)benzyl Dimethyldithiocarbamate] | 0 | 5 | 0 | 0 | 0 | 0 | 0 | 0 | 0 | 0 | 5 (100% effectiveness of the test compound against the specified organism) | 5 (100% effectiveness of the test compound against the specified organism) | 0 | 4 | 5 | 5 | 3 | 5 | 5 | 5 and 0 | disease control index ([17]; 1200 ppm): 5 |
| CC(C)c1ccc(C(C[N+](=O)[O-])SC(=S)N(C)C)cc1 (stereo not drawn) [Example 26, p-Isopropyl-α-(nitromethyl)benzyl Dimethyldithiocarbamate] | 0 | 5 | 0 | 0 | 0 | 5 (100% effectiveness of the test compound against the specified organism) | 5 (100% effectiveness of the test compound against the specified organism) | 5 (100% effectiveness of the test compound against the specified organism) | 5 (100% effectiveness of the test compound against the specified organism) | 0 | 5 (100% effectiveness of the test compound against the specified organism) | 5 (100% effectiveness of the test compound against the specified organism) | 3 | 4 | 4 | 5 | 4 | 4 | 5 | 5 and 0 | disease control index ([17]; 1200 ppm): 5 |
